Results as given in patent US6204384A, “Substituted 3-amino-2-hydroxyphenylacetamide derivatives as enzyme inhibitors (II)” (Corvas International, Inc., priority 1997, dated 2001).

What was measured:
[1] = system: thrombotic occlusion of the carotid artery; experiment: Rat model of FeCl3-induced platelet-dependent arterial thrombosis; format: in vivo; settings: dose that prevents complete thrombotic occlusion in 50% of animals tested, read-out: ED50 for thrombus prevention in the FeCl3 model of arterial thrombosis
Method: The antithrombotic (prevention of thrombus formation) properties of compounds of the present invention are evaluated using the following established experimental model of acute vascular thrombosis which is a rat model of FeCl3 -induced platelet-dependent arterial thrombosis.
This is a well characterized model of platelet dependent, arterial thrombosis which has been used in the evaluation potential antithrombotic compounds such as direct thrombin inhibitors. See, Kurz, K. D., Main, B. W., and Sandusky, G. E., Thromb. Res., 60: 269-280 (1990). In this model a platelet-rich, occlusive thrombus is formed in a segment of the rat carotid artery treated locally with a fresh solution of FeCl3 absorbed to a piece of filter paper. […] The effect of a test compound on the incidence of occlusive thrombus formation following the application of the […] is monitored by ultrasonic flowtometry and is used as the primary end point. […]
Following surgery the animals are randomized in either a control (saline) or treatment group with test compound, with at least 6 animals per group per dose. […] Blood pressure, blood flow, heart rate, and respiration are monitored for 60 minutes.
The incidence of occlusion (defined as the attainment of zero blood flow) is recorded as the primary end point. […]

[2] = literature; cited from earlier work
[3] = literature; cited from earlier work; remark: listed apart in the source
[4] = system: trypsin, plasmin and kallikrein; settings: literature, inhibiting trypsin; cited from earlier work

Structure (SMILES) | ED50 [1] [mg/kg] | pharmacokinetics, in words [2] | toxicity, in words [3] | selectivity, in words [4]
CC1CNc2c(cccc2S(=O)(=O)N[C@@H](CCCNC(=N)N)C(=O)N2CC[C@@H](C)C[C@@H]2C(=O)O)C1 (stereo partly drawn) [Argatroban, 2R,4R-4-methyl-1-[N-2-(3-methyl-1,2,3,4-tetrahydro-8-quinolinesulfonyl)-L-argininy]-2-piperdinecarboxylic acid] | 3.8 | – | – | –
N=C(N)c1ccc(CC(=O)C(=O)O)cc1 [APPA, 4-amidinophenylpyruvic acid] | – | favourable pharmacokinetics | low toxicity | non-selective, inhibiting trypsin, plasmin and kallikrein
